IC50 data for two compounds are collected here from patent EP1210350B1, “WATER SOLUBLE SDZ-RAD ESTERS” (Wyeth, priority 1999, dated 2001).

≈ marks a conversion by molar mass, not a printed value. Read-outs that look alike come from different tables or passages of the source.

The assay concerns U87MG Human Glioblastoma (ATCC # HTB-14). The assay is described as follows: 3H thymidine incorporation in U87MG human glioblastoma cells. The conditions noted are these: 48 hours incubation with compound, 3H thymidine for the last 5 hours. It is filed as cell-based. How it is done:
U87MG Human Glioblastoma (ATCC # HTB-14)
3H Thymidine Incorporation Protocol
• Growth Medium: BRL Minimum Essential Medium with Earle Salts (500 ml) + 5mLBRL MEM Non-Essential Amino Acids (10mM) +5 mLBRL Penicillin-Streptomycin (10000u/ml,10000ug/ml) +5mLBRL Na Pyruvate Solution (100mM) +5mLBRL L-Glutamine 200mM +50mLBRL Fetal Bovine Serum (Qualified) • Assay: • 1. Cells were trypsinized and plated at a concentration of 10^4 cells/well in a final volume of 200 µl growth medium in 96-well flat bottom plates and allowed to adhere for 24 hours at 37°C. • 2. The media was removed by aspiration with care to not disturb the cell monolayer. 200 µl of fresh growth media was added per well, allowing enough wells for samples to be run in triplicate. Compounds were added in 10 µl PBS solutions and incubated for another 48 hours at 37°C. • 3. During the last 5 hours of incubation, plates were labeled with 1µCi 3H thymidine per well. (NEN thymidine, catalog # NET-027, 6.7 Ci/mmole). The 1µCi was added in 10 µl of PBS (on the day of harvest.). The plates were returned to the incubator for the last 5 hours. • 4. The radioactive media was removed by aspiration, with care not to disturb the cell monolayer. 50 µl of BRL 10X Trypsin was added to each well, followed by incubation at 37°C for 10 minutes or until the monolayer was loosened from the well bottom. […] Mats were counted in a Wallac Betaplate counter.
(Dividing cells build labelled thymidine or BrdU into new DNA.)

By IC50 is commonly meant the concentration that inhibits the measured activity by half.

For the compound `CO[C@H]1C[C@@H]2CC[C@@H](C)[C@@](O)(O2)C(=O)C(=O)N2CCCC[C@H]2C(=O)O[C@H]([C@H](C)C[C@@H]2CC[C@@H](O)[C@H](OC)C2)CC(=O)[C@H](C)/C=C(\C)[C@@H](O)[C@@H](OC)C(=O)[C@H](C)C[C@H](C)/C=C/C=C/C=C/1C` [Rapamycin], the IC50 (Homo sapiens, U-87 MG, read-out: IC50) stood at 0.5 ng/mL (≈ 0.547 nM). With `CO[C@H]1C[C@@H]2CC[C@@H](C)[C@@](O)(O2)C(=O)C(=O)N2CCCC[C@H]2C(=O)O[C@H]([C@H](C)C[C@@H]2CC[C@@H](OCCO)[C@H](OC)C2)CC(=O)[C@H](C)/C=C(\C)[C@@H](O)[C@@H](OC)C(=O)[C@H](C)C[C@H](C)/C=C/C=C/C=C/1C` [SDZ-RAD, 40-O-(2-hydroxy)ethyl-rapamycin], the IC50 is 2.0 ng/mL (≈ 2.09 nM).
